The structures appear in SMILES notation.

We go through 28 compounds from patent US10988478B1, “Pyrazolo[1,5a]pyrimidine derivatives as IRAK4 modulators” (Genentech, Inc., priority 2015, dated 2021).

Sequence of human IRAK4 (Q9NWZ3 whole entry, the tested form may be a part): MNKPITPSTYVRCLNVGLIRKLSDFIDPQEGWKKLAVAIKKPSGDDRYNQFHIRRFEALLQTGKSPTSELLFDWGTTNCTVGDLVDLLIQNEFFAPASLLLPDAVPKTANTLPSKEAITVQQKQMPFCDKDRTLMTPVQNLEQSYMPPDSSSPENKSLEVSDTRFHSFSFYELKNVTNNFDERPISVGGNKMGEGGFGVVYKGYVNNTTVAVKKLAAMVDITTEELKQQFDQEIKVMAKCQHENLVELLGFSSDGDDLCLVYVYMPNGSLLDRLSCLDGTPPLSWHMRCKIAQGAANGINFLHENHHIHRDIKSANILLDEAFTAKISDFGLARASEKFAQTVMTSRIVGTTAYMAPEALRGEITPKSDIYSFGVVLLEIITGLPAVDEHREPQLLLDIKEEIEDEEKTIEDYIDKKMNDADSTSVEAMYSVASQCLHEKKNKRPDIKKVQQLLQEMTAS

The experiment concerns the target human IRAK4 (Homo sapiens (Human), UniProt Q9NWZ3). Description: IRAK4 kinase inhibition, Transcreener fluorescence polarization ADP assay. In kind it is biochemical. The conditions noted are these: recombinant full-length His6-IRAK4; 125 uM ATP; 90 min; Ki computed using ATP Km 642 uM. The protocol:
Compounds were assayed for inhibition of human IRAK4 and IRAK1 catalytic activity using recombinant enzyme produced from insect cells. Full-length IRAK4 protein, carrying an N-terminal His6-Tag, was obtained from Life Technologies (Carlsbad, Calif., USA). The IRAK1 construct was produced internally and was comprised of IRAK1 residues Arg194 to Ser712, preceded by an NH2-terminal His6 tag and the coding sequence for glutathione-S-transferase.
As usually defined, the Ki is the equilibrium dissociation constant of an inhibitor or competing ligand from its target. Regarding `CC1(C)Cc2cc(NC(=O)c3cnn4cccnc34)c(OC[C@@H]3CCNC(=O)C3)cc2O1` [Example 305], the Ki was determined as 29 nM.

For the compound `CC1(C)Cc2cc(NC(=O)c3cnn4cccnc34)c(OC[C@H]3CCNC(=O)C3)cc2O1` [Example 306, (S)-N-(2,2-Dimethyl-6-((2-oxopiperidin-4-yl)methoxy)-2,3-dihydrobenzofuran-5-yl)pyrazolo[1,5-α]pyrimidine-3-carboxamide], the inhibitory constant (Ki) was determined as 52 nM. Then `CC1(C)Cc2cc(NC(=O)c3cnn4cccnc34)c(OC[C@H]3CNC(=O)C3)cc2O1` [Example 307, N-[2,2-Dimethyl-6-[[(3R)-5-oxopyrrolidin-3-yl]methoxy]-3H-benzofuran-5-yl]pyrazolo[1,5-a]pyrimidine-3-carboxamide], with 32 nM; and `CC1(C)Cc2cc(NC(=O)c3cnn4cccnc34)c(OC[C@@H]3CNC(=O)C3)cc2O1` [Example 308, N-[2,2-Dimethyl-6-[[(3S)-5-oxopyrrolidin-3-yl]methoxy]-3H-benzofuran-5-yl]pyrazolo[1,5-a]pyrimidine-3-carboxamide], with 9 nM. As for `CC1(C)Cc2cc(NC(=O)c3cnn4cccnc34)c(OCC3CCNCC3)cc2O1` [Example 309, N-(2,2-Dimethyl-6-(piperidin-4-ylmethoxy)-2,3-dihydrobenzofuran-5-yl)pyrazolo[1,5-α]pyrimidine-3-carboxamide], the figure is 15 nM. Then `C[C@@]1(CO)Cc2cc(NC(=O)c3cnn4cccnc34)c(OCC(F)F)cc2O1` [Example 310, (S)-N-(6-(2,2-difluoroethoxy)-2-(hydroxymethyl)-2-methyl-2,3-dihydrobenzofuran-5-yl)pyrazolo[1,5-a]pyrimidine-3-carboxamide], with 23 nM; and `C[C@]1(CO)Cc2cc(NC(=O)c3cnn4cccnc34)c(OCC(F)F)cc2O1` [Example 311, (R)-N-(6-(2,2-difluoroethoxy)-2-(hydroxymethyl)-2-methyl-2,3-dihydrobenzofuran-5-yl)pyrazolo[1,5-a]pyrimidine-3-carboxamide], with 10 nM. Consider `CC(C)(O)[C@]1(C)Cc2cc(NC(=O)c3cnn4cccnc34)c(O[C@H]3CC[C@@H](O)CC3)cc2O1` [Example 312, N-[(2S)-6-(cis-4-Hydroxycyclo-hexoxy)-2-(1-hydroxy-1-methyl-ethyl)-2-methyl-3H-benzofuran-5-yl]pyrazolo[1,5-a]pyrimidine-3-carboxamide], for which the Ki came to 73 nM. In the case of `CC(C)(O)[C@@]1(C)Cc2cc(NC(=O)c3cnn4cccnc34)c(O[C@H]3CC[C@@H](O)CC3)cc2O1` [Example 313, N-[(2R)-6-(cis-4-Hydroxycyclo-hexoxy)-2-(1-hydroxy-1-methyl-ethyl)-2-methyl-3H-benzofuran-5-yl]pyrazolo[1,5-a]pyrimidine-3-carboxamide], the Ki turned out to be 490 nM. For `CC(C)(O)[C@]1(C)Cc2cc(NC(=O)c3cnn4cccnc34)c(O[C@H]3CC[C@H](O)CC3)cc2O1` [Example 314, N-[(2S)-6-(trans-4-Hydroxycyclo-hexoxy)-2-(1-hydroxy-1-methyl-ethyl)-2-methyl-3H-benzofuran-5-yl]pyrazolo[1,5-a]pyrimidine-3-carboxamide], the Ki is 65 nM.

`CC(C)(O)[C@@]1(C)Cc2cc(NC(=O)c3cnn4cccnc34)c(O[C@H]3CC[C@H](O)CC3)cc2O1` [Example 315, N-[(2R)-6-(trans-4-Hydroxycyclo-hexoxy)-2-(1-hydroxy-1-methyl-ethyl)-2-methyl-3H-benzofuran-5-yl]pyrazolo[1,5-a]pyrimidine-3-carboxamide]: the Ki is 520 nM. With `O=C(Nc1cc2c(cc1N1CCC(CO)CC1)O[C@](CO)(C(F)(F)F)C2)c1cnn2cccnc12` [Example 316, (R)-N-(2-(hydroxymethyl)-6-(4-(hydroxymethyl)piperidin-1-yl)-2-(trifluoromethyl)-2,3-dihydrobenzofuran-5-yl)pyrazolo[1,5-a]pyrimidine-3-carboxamide], the Ki was 5.2 nM.

With `O=C(Nc1cc2c(cc1N1CCC(CO)CC1)O[C@@](CO)(C(F)(F)F)C2)c1cnn2cccnc12` [Example 317, (S)-N-(2-(hydroxymethyl)-6-(4-(hydroxymethyl)piperidin-1-yl)-2-(trifluoromethyl)-2,3-dihydrobenzofuran-5-yl)pyrazolo[1,5-a]pyrimidine-3-carboxamide], the inhibitory constant (Ki) came out at 2.4 nM. Regarding `O=C(Nc1cc2c(cc1N1CCC(F)(CO)CC1)O[C@@](CO)(C(F)(F)F)C2)c1cnn2cccnc12` [Example 319, (S)-N-(6-(4-fluoro-4-(hydroxymethyl)piperidin-1-yl)-2-(hydroxymethyl)-2-(trifluoromethyl)-2,3-dihydrobenzofuran-5-yl)pyrazolo[1,5-a]pyrimidine-3-carboxamide], the inhibition constant Ki stood at 3.1 nM. Take `C[C@]1(CO)Cc2cc(NC(=O)c3cnn4cccnc34)c(N3CCC4(CC3)CNC4=O)cc2O1` [Example 320, (R)-N-(2-(hydroxymethyl)-2-methyl-6-(1-oxo-2,7-diazaspiro[3.5]nonan-7-yl)-2,3-dihydrobenzofuran-5-yl)pyrazolo[1,5-a]pyrimidine-3-carboxamide]: the Ki was found to be 4.6 nM. Regarding `C[C@@]1(CO)Cc2cc(NC(=O)c3cnn4cccnc34)c(N3CCC4(CC3)CNC4=O)cc2O1` [Example 321, (S)-N-(2-(hydroxymethyl)-2-methyl-6-(1-oxo-2,7-diazaspiro[3.5]nonan-7-yl)-2,3-dihydrobenzofuran-5-yl)pyrazolo[1,5-a]pyrimidine-3-carboxamide], the Ki amounted to 11 nM.

With `CC1(CO)Cc2cc(NC(=O)c3cnn4cccnc34)c(N3CC4C(CO)C4C3)cc2O1` (stereo not shown) [Example 322, N-(2-(hydroxymethyl)-6-(6-(hydroxymethyl)-3-azabicyclo[3.1.0]hexan-3-yl)-2-methyl-2,3-dihydrobenzofuran-5-yl)pyrazolo[1,5-a]pyrimidine-3-carboxamide], the inhibition constant Ki worked out at 35 nM. Then `CC(C)(O)C1CCN(c2cc3c(cc2NC(=O)c2cnn4cccnc24)C[C@@](C)(CO)O3)CC1` [Example 323, N-[(2S)-2-(Hydroxymethyl)-6-[4-(1-hydroxy-1-methyl-ethyl)-1-piperidyl]-2-methyl-3H-benzofuran-5-yl]pyrazolo[1,5-α]pyrimidine-3-carboxamide], with 4.2 nM; and `CC(C)(O)C1CCN(c2cc3c(cc2NC(=O)c2cnn4cccnc24)C[C@](C)(CO)O3)CC1` [Example 324, N-[(2R)-2-(Hydroxymethyl)-6-[4-(1-hydroxy-1-methyl-ethyl)-1-piperidyl]-2-methyl-3H-benzofuran-5-yl]pyrazolo[1,5-α]pyrimidine-3-carboxamide], with 4.8 nM; and `Cc1cnc2c(C(=O)Nc3cc4c(cc3N3CCN(CC(F)F)CC3)OC(C)(CO)C4)cnn2c1` (stereo not shown) [Example 325, N-(6-(4-(2,2-Difluoroethyl)piperazin-1-yl)-2-(hydroxymethyl)-2-methyl-2,3-dihydrobenzofuran-5-yl)-6-methylpyrazolo[1,5-a]pyrimidine-3-carboxamide], with 6 nM. As for `Cc1cnc2c(C(=O)Nc3cc4c(cc3N3CCC(F)(CO)CC3)OC(C)(CO)C4)cnn2c1` (stereo not drawn) [Example 328, N-(6-(4-Fluoro-4-(hydroxymethyl)-piperidin-1-yl)-2-(hydroxymethyl)-2-methyl-2,3-dihydrobenzofuran-5-yl)-6-methylpyrazolo[1,5-α]pyrimidine-3-carboxamide], the figure is 2.7 nM; as for `C[C@@]1(O)CCCN(c2cc3c(cc2NC(=O)c2cnn4cccnc24)C[C@](C)(CO)O3)CC1` [Example 329, N-((R)-6-((R)-4-hydroxy-4-methylazepan-1-yl)-2-(hydroxymethyl)-2-methyl-2,3-dihydrobenzofuran-5-yl)pyrazolo[1,5-a]pyrimidine-3-carboxamide], 6 nM. Take `C[C@]1(O)CCCN(c2cc3c(cc2NC(=O)c2cnn4cccnc24)C[C@](C)(CO)O3)CC1` [Example 330, N-((R)-6-((S)-4-hydroxy-4-methylazepan-1-yl)-2-(hydroxymethyl)-2-methyl-2,3-dihydrobenzofuran-5-yl)pyrazolo[1,5-a]pyrimidine-3-carboxamide]: the Ki stood at 6 nM. Then `C[C@]1(O)CCCN(c2cc3c(cc2NC(=O)c2cnn4cccnc24)C[C@@](C)(CO)O3)CC1` [Example 332, N-((S)-6-((S)-4-hydroxy-4-methylazepan-1-yl)-2-(hydroxymethyl)-2-methyl-2,3-dihydrobenzofuran-5-yl)pyrazolo[1,5-a]pyrimidine-3-carboxamide], with 6 nM; and `C[C@]1(CO)Cc2cc(NC(=O)c3cnn4cccnc34)c(N3CCC(C#N)CC3)cc2O1` [Example 335, (R)-N-(6-(4-cyanopiperidin-1-yl)-2-(hydroxymethyl)-2-methyl-2,3-dihydrobenzofuran-5-yl)pyrazolo[1,5-a]pyrimidine-3-carboxamide], with 2 nM. Then `C[C@@]1(CO)Cc2cc(NC(=O)c3cnn4cccnc34)c(N3CCC(C#N)CC3)cc2O1` [Example 336, (S)-N-(6-(4-cyanopiperidin-1-yl)-2-(hydroxymethyl)-2-methyl-2,3-dihydrobenzofuran-5-yl)pyrazolo[1,5-a]pyrimidine-3-carboxamide], with 3 nM.

As to `C[C@]1(CO)Cc2cc(NC(=O)c3cnn4cccnc34)c(N3CCC(C4(O)CC4)CC3)cc2O1` [Example 341, N-[(2R)-6-[4-(1-hydroxycyclopropyl)-1-piperidyl]-2-(hydroxymethyl)-2-methyl-3H-benzofuran-5-yl]pyrazolo[1,5-a]pyrimidine-3-carboxamide], the Ki turned out to be 4 nM. Then `C[C@@]1(CO)Cc2cc(NC(=O)c3cnn4cccnc34)c(N3CCC(C4(O)CC4)CC3)cc2O1` [Example 342, N-[(2S)-6-[4-(1-hydroxycyclopropyl)-1-piperidyl]-2-(hydroxymethyl)-2-methyl-3H-benzofuran-5-yl]pyrazolo[1,5-a]pyrimidine-3-carboxamide], with 3.9 nM.
